The values below come from ChEMBL document CHEMBL5214883, “Comprehensive review for anticancer hybridized multitargeting HDAC inhibitors” (Eur J Med Chem, 2021).

In general, IC50 refers to the concentration at which inhibition is half-maximal. As usually defined, the inhibition is the percentage by which the read-out fell short of the control.

Structures are written as SMILES. Bounds are passed on as bounds.

Data set [1] has as its target T1, Protein deacetylase HDAC6 (Homo sapiens, UniProt Q9UBN7).
T1 sequence (Q9UBN7 whole entry): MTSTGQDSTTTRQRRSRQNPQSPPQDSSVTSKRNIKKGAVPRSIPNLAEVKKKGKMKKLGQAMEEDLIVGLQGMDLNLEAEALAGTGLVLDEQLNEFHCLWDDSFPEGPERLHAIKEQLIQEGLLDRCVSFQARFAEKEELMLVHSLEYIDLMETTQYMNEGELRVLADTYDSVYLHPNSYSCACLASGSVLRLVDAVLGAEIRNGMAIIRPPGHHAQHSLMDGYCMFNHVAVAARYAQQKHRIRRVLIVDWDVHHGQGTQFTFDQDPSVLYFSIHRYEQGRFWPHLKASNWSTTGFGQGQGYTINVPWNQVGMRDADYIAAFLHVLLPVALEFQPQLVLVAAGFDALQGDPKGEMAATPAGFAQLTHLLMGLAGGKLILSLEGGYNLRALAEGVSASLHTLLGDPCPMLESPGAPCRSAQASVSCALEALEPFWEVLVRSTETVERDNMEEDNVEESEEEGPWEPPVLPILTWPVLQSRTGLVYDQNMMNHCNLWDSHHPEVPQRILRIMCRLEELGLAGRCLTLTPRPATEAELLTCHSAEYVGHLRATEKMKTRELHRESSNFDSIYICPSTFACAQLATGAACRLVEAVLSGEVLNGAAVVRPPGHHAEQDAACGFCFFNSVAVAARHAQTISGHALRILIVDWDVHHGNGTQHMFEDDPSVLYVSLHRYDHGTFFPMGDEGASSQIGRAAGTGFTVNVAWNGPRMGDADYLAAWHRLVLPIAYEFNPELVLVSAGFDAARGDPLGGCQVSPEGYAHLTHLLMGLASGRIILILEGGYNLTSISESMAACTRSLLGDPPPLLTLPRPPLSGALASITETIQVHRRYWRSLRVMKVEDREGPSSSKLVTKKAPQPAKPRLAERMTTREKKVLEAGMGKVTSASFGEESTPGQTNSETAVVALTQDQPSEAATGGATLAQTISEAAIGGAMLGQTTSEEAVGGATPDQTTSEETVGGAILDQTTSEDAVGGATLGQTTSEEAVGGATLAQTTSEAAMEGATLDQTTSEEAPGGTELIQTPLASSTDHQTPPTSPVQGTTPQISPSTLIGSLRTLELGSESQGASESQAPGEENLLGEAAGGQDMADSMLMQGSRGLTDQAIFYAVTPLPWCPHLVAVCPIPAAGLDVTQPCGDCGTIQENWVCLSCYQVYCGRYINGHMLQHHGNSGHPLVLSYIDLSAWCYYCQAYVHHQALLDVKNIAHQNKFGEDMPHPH
Put plainly: Inhibition of HDAC6 (unknown origin) using fluorogenic substrate incubated for 30 mins by fluorometric drug discovery assay kit method.

Data set [2] addresses T2, Histone deacetylase 1 (Homo sapiens, UniProt Q13547). Put plainly: Inhibition of HDAC1 (unknown origin).
The test system of data set [3] is SMMC-7721. The data set can be described thus: Cytotoxicity against human SMMC-7721 cells. The data set is classed as functional, cell-based.
Data set [4] can be described thus: Cytotoxicity against African green monkey Vero cells. The settings on record: African green monkey (Chlorocebus sabaeus).
The test system of data set [5] is RWPE-1. Put plainly: Cytotoxicity against human RWPE-1 cells. The data set is classed as functional, cell-based.
In data set [6] the test system is PC-3. Put plainly: Cytotoxicity against human PC-3 cells. Format: functional, cell-based.
Data set [7] has as its system MCF7. Put plainly: Cytotoxicity against human MCF7 cells. Format: functional, cell-based.
Data set [8] relates to MDA-MB-231. The data set can be described thus: Cytotoxicity against human MDA-MB-231 cells. Format: functional, cell-based.
For data set [9], the target named is T2, Histone deacetylase 1. The data set can be described thus: Inhibition of human recombinant HDAC1 using Ac-Lys-Tyr-Lys (epsilon-acetyl)-AMC as substrate incubated for 24 hrs by EnVision multilabel plate reader method.
Data set [10] concerns PC-3. The data set can be described thus: Antiproliferative activity against human PC-3 cells incubated for 48 hrs by Sulforhodamine B staining method. The data set is classed as functional, cell-based. To be noted: PC-3, 48 h. On the technique in general: Sulforhodamine B stains cellular protein and so reports cell mass.
Data set [11] has as its system DU-145. Put plainly: Antiproliferative activity against human DU-145 cells incubated for 48 hrs by Sulforhodamine B staining method. The data set is classed as functional, cell-based. To be noted: DU-145, 48 h.
In data set [12] the target is Histone deacetylase 2 (Homo sapiens, UniProt Q92769). Put plainly: Inhibition of human HDAC2 incubated for 30 mins by SpectraMax M2 microplate reader analysis.
Data set [13] deals with Tubulin. The data set can be described thus: Inhibition of tubulin polymerization (unknown origin) incubated for 15 mins in presence of GTP by fluorescence-based tubulin polymerization assay kit. The data set is classed as protein-complex assay, Homo sapiens.
Data set [14] addresses Bcr/Abl fusion protein (Homo sapiens, UniProt P00519). The data set can be described thus: Inhibition of Bcr-Abl (unknown origin). Format: protein assay.
Data set [15] concerns K562. The data set can be described thus: Cytotoxicity against human K562 cells.
Data set [16] concerns DU-145. The data set can be described thus: Cytotoxicity against human DU-145 cells.
Data set [17] relates to HEK-293T. Put plainly: Cytotoxicity against human 293T cells by trypan blue staining method. The data set is classed as functional. To be noted: read-out: LC50 (the source's name).
For data set [18], the system named is MCF7. Put plainly: Cytotoxicity against human MCF7 cells by trypan blue staining method. The data set is classed as functional, cell-based.
The subject of data set [19] is Jurkat. The data set can be described thus: Cytotoxicity against human Jurkat cells by trypan blue staining method. Format: functional. To be noted: read-out: LC50 (the source's name).
Data set [20] concerns L1210. Put plainly: Cytotoxicity against mouse L1210 cells by trypan blue staining method. Format: functional. To be noted: read-out: LC50 (the source's name).
Data set [21] relates to HaCaT. Put plainly: Cytotoxicity against human HaCat cells by trypan blue staining method. Format: functional. The settings on record: read-out: LC50 (the source's name).
For data set [22], the target named is T2, Histone deacetylase 1. The data set can be described thus: Inhibition of HDAC1 (unknown origin) relative to control. The settings on record: concentration not given here.
The target in data set [23] is T2, Histone deacetylase 1. Put plainly: Inhibition of HDAC1 in human HeLa cell nuclear extract using Bos-Lys(acetyl)-AMC as substrate preincubated for 5 mins followed by substrate addition incubated for 30 mins. Format: cell-free.
The target of data set [24] is Epidermal growth factor receptor (Homo sapiens, UniProt P00533). Put plainly: Inhibition of EGFR wildtype (unknown origin) incubated for 40 mins in presence of ATP.
In data set [25] the target is Epidermal growth factor receptor (Homo sapiens, UniProt P00533, T790M). The data set can be described thus: Inhibition of EGFR T790M (unknown origin) incubated for 40 mins in presence of ATP.
Data set [26] has as its system Epidermal growth factor receptor (Homo sapiens), P00533 [UNDEFINED MUTATION]. The data set can be described thus: Inhibition of EGFR T790M (unknown origin) at 1 uM incubated for 40 mins in presence of ATP relative to control.
The target of data set [27] is T1, Protein deacetylase HDAC6. The data set can be described thus: Inhibition of HDAC6 (unknown origin).
Data set [28] can be described thus: Inhibition of PDGFR (unknown origin). Set-up: species or system Homo sapiens.
Data set [29] has as its system A549. Put plainly: Antiproliferative activity against human A549 cells incubated for 72 hrs by CCK-8 assay. Format: functional, cell-based. To be noted: A549, 72 h. In general terms: Formazan colour is commonly taken as a measure of viable cells.
Data set [30] relates to HepG2. The data set can be described thus: Antiproliferative activity against human HepG2 cells incubated for 72 hrs by CCK-8 assay. To be noted: HepG2, 72 h. Format: functional, cell-based.
Data set [31] deals with MCF7. Put plainly: Antiproliferative activity against human MCF7 cells incubated for 72 hrs by CCK-8 assay. The settings on record: MCF7, 72 h. The data set is classed as functional, cell-based.
In data set [32] the test system is PC-3. Put plainly: Antiproliferative activity against human PC-3 cells incubated for 72 hrs by CCK-8 assay. Format: functional, cell-based. To be noted: PC-3, 72 h.
Data set [33] deals with HeLa. The data set can be described thus: Antiproliferative activity against human HeLa cells incubated for 72 hrs by CCK-8 assay. The data set is classed as functional, cell-based.
Data set [34] has as its target Histone-lysine N-methyltransferase EZH2 (Homo sapiens, UniProt Q15910). Put plainly: Inhibition of EZH2 (unknown origin).
The target in data set [35] is Vitamin D3 receptor (Homo sapiens, UniProt P11473). The data set can be described thus: Agonist activity at Vitamin D receptor (unknown origin) by fluorescence polarization assay. (In general: Polarisation of emitted light reports the rotation of a fluorescent probe.)

T2 sequence (Q13547 whole entry): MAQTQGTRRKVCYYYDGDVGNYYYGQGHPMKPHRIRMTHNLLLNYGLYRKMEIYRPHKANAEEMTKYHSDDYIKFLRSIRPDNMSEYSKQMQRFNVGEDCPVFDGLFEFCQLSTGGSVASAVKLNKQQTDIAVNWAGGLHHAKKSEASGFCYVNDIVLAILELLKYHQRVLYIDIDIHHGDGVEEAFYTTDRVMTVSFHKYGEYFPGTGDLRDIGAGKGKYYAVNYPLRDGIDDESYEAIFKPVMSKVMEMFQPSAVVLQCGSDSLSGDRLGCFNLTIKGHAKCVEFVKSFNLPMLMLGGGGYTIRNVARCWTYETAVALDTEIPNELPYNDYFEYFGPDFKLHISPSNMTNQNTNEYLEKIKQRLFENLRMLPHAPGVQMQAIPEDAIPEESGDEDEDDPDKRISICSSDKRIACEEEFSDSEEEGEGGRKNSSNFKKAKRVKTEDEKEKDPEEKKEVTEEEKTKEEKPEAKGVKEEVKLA
Sequence of Histone-lysine N-methyltransferase EZH2 (Q15910 whole entry): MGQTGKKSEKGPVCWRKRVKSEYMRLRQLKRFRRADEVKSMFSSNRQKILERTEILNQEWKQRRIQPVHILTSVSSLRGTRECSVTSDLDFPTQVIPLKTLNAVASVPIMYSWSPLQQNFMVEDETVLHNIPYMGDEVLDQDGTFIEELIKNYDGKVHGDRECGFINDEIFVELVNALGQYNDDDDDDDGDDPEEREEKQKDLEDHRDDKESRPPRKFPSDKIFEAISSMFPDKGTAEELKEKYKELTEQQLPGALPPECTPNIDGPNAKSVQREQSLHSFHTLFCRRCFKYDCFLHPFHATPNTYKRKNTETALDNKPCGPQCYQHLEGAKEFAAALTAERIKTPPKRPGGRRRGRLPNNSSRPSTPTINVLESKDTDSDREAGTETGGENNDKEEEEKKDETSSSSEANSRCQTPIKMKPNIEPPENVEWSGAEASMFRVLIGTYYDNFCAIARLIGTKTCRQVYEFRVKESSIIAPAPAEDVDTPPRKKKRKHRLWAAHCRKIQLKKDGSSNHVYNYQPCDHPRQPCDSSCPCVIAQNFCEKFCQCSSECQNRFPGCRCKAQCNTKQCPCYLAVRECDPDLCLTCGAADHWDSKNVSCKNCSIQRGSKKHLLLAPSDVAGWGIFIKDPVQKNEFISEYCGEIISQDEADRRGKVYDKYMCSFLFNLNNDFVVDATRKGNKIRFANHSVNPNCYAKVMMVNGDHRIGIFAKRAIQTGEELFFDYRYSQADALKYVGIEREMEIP
Sequence of Epidermal growth factor receptor (Homo sapiens), P00533 [UNDEFINED MUTATION] (P00533 whole entry, looked up, stated change not applied): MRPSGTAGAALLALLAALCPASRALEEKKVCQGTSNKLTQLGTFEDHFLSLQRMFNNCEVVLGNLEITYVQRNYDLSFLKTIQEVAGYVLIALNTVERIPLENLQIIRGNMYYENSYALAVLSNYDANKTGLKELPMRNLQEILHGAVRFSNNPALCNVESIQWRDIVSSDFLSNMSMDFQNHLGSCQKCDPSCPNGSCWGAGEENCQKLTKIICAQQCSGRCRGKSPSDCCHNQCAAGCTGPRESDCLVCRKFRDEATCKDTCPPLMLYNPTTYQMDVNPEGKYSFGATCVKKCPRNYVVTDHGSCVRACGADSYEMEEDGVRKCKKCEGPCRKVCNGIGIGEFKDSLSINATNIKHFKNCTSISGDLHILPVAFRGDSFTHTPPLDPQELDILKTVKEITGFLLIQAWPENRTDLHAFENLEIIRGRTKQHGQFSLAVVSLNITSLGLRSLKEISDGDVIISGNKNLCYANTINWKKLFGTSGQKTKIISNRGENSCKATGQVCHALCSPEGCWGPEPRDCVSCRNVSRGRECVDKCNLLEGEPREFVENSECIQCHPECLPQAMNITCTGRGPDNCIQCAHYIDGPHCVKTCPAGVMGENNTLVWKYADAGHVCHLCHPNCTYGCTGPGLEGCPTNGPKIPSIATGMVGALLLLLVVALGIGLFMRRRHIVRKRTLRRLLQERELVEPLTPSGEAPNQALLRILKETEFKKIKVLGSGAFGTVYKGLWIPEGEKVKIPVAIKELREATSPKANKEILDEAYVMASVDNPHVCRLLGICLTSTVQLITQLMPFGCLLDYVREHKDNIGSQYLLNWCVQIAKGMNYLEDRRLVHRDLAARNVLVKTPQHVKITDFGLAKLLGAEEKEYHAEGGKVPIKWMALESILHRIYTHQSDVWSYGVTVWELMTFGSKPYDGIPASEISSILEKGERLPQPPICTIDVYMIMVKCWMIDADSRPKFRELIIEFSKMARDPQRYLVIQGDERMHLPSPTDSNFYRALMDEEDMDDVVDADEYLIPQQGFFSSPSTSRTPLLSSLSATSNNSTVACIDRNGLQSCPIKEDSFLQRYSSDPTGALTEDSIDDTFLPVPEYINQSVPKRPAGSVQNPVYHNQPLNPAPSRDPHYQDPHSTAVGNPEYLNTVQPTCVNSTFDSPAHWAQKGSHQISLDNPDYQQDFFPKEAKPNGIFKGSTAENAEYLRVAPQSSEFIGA
Sequence of Epidermal growth factor receptor (Homo sapiens, UniProt P00533) (P00533 whole entry): as the sequence (P00533 whole entry, looked up, stated change not applied) above
Sequence of Epidermal growth factor receptor (Homo sapiens, UniProt P00533, T790M) (P00533 25-1210 T790M limits assumed): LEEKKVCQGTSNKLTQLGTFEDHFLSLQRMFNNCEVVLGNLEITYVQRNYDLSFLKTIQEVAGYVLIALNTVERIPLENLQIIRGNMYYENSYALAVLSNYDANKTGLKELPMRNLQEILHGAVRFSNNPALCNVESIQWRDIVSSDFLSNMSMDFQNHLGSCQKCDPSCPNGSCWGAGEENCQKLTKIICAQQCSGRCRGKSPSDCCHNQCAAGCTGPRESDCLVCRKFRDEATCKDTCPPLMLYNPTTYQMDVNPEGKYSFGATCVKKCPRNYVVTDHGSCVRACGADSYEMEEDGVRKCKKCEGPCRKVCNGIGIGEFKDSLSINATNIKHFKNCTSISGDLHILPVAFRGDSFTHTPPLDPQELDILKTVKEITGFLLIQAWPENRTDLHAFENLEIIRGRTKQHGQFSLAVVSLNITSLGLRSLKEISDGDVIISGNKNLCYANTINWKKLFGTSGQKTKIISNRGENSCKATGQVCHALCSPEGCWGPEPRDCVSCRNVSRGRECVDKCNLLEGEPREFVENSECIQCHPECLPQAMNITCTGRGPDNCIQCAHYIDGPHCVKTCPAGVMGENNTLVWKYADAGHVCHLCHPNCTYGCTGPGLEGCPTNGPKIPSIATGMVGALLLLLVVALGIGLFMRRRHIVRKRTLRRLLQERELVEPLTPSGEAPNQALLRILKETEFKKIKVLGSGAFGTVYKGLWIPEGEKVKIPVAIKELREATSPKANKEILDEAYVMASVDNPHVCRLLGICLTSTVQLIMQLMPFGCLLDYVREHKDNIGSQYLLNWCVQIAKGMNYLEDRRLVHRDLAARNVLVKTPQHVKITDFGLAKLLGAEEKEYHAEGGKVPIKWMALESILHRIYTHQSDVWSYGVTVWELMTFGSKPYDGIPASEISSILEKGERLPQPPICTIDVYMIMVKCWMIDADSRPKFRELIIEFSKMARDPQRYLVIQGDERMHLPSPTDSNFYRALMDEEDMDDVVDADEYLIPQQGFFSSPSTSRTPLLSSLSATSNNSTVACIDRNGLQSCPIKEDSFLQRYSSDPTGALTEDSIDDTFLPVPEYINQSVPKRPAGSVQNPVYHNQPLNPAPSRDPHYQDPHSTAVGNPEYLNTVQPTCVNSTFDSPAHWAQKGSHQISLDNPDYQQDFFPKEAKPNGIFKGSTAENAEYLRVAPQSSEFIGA

In data set [1], `CN(C)c1nc2c(Br)c(Br)c(Br)c(Br)c2n1CCCCCC(=O)NO` came in with an IC50 of 0.86 µM.

Turning to `CC(C)=CCC/C(C)=C\CC/C(C)=C\CSc1ccccc1C(=O)NCCCCC(=O)NO`, the values for the IC50 in data set [2] and in data set [3] were 0.00058 µM and 4.93 µM, respectively.

Turning to `CC1(C)C(=O)N(c2ccc(C#N)c(C(F)(F)F)c2)C(=O)N1CCCCCCc1cn(CCCCCCC(=O)NO)nn1`, the IC50 in [4] is over 20 µM; in [5] it was 12.1 µM; in [6], 15.7 µM; in data set [7], 14.6 µM; in data set [8], over 20 µM.

As to `COc1cc2ncnc(Nc3cccc(/C=C/C(=O)NO)c3)c2cc1OCCCN1CCOCC1`, the IC50 in [9] was 0.15 µM.

`CN(C)CCNC(=O)c1cccc2cc3ccccc3nc12`: the values for the IC50 in data set [10] and in [11] were 1.86 µM and 2 µM, respectively.

Regarding `C[C@H]1COc2c(N3CCN(C)CC3)c(F)cc3c(=O)c(C(=O)NCc4cn(CCCCCC(=O)NO)nn4)cn1c23`, the IC50 in [12] came out at 0.85 µM; in data set [13] it was 2.02 µM.

Consider `CCN1CCN(c2cc(Nc3ncc(C(=O)Nc4ccc(F)cc4N)s3)nc(C)n2)CC1`, for which the IC50 in data set [2] was 0.81 µM; in [14] it was 17.8 µM; in [15], 2.62 µM; in data set [16], 0.6 µM.

Turning to `O=C(CCn1cc(CCn2nnc3c(Br)c(Br)c(Br)c(Br)c32)nn1)NO`, the CC50 in [17], in data set [19], in data set [20] and in [21] was 13.5 µM throughout. For the same compound, the concentration for half-maximal inhibition (IC50) in [18] was found to be 17.3 µM. In data set [22], this compound displayed an inhibition of 90%.

With `Cn1cc(-c2ccnc(Nc3ccc(NC(=O)CCCCCCC(=O)NO)cc3)n2)c2ccccc21`, the figures for the IC50 in [23], in data set [24] and in data set [25] were 0.105 µM, 3.2 µM and 1.2 µM, respectively. The inhibition in [26] was found to be 44%.

With `Cc1ccc(NCc2ccc(C(=O)Nc3ccccc3N)cc2)cc1Nc1nccc(-c2cccnc2)n1`, the IC50 is at least 32 µM in data set [27] and 2.7 µM in data set [28].

On to `C[C@H]1COc2c(N3CCN(C)CC3)c(F)cc3c(=O)c(C(=O)O)cn1c23` [LEVOFLOXACIN], for which the 50% inhibitory concentration (IC50) in data set [29] is over 70 µM; in data set [30] it was over 70 µM; in data set [31], over 70 µM; in data set [32], over 70 µM; in data set [33], over 70 µM; in data set [13], 11.3 µM.

Turning to `Cc1cc(C)c(CNC(=O)c2cc(C)n(-c3ccccc3)c2C)c(=O)[nH]1`, it took 15.4 µM to reach half-maximal inhibition in data set [34] (IC50).

`Cc1cc(C)c(CNC(=O)c2cnn(-c3ccccc3)c2C)c(=O)[nH]1` displayed an IC50 in [34] of 5.78 µM.

With `CC(/C=C/C(=O)NO)=C\[C@@H](C)C(=O)c1ccc(N(C)C)cc1` [TRICHOSTATIN], the IC50 in [35] came to 0.087 µM.
